Experimental data published in PMC5840727, “Cysteine peptidases of Eudiplozoon nipponicum: a broad repertoire of structurally assorted cathepsins L in contrast to the scarcity of cathepsins B in an invasive species of haematophagous monogenean of common carp” (Parasites & Vectors, 2018).
Where a SMILES comes first, the peptide text is derived from it. Where no end group is shown, it is not given here. The star is where a group is joined. AMC = Cc1cc(=O)oc2cc(N*)ccc12; Cbz = O=C(OCc1ccccc1)*

Assays:
Type in all cases: biochemical
[1] = target: T1, yrEnCL1 (EnCL1, E. nipponicum cathepsin L1) (Eudiplozoon nipponicum, UniProt A0A0K1L8K1); test: fluorogenic peptidase inhibition assay (AMC release); details: read-out: % remaining activity at 10 uM
T1 construct: Expressed as pro-enzyme in Pichia pastoris X-33 (pPICZalpha B), His-tag, self-processed in medium to ~28 kDa partially processed form, partially purified; full transcript 317 residues

[2] = target: T2, yrEnCL3 (EnCL3, E. nipponicum cathepsin L3) (Eudiplozoon nipponicum, UniProt A0A0K1L960); test: as above; details: read-out: % remaining activity at 10 uM
T2 construct: Pichia pastoris X-33 (pPICZalpha B), His-tag; full transcript 368 residues

[3] = target: T1, yrEnCL1 (EnCL1, E. nipponicum cathepsin L1); test: fluorogenic AMC release; details: 50 uM substrate, 2 mM DTT, citrate/phosphate buffer, pH optimum 5.5, 28 °C; partially purified enzyme
[4] = target: T2, yrEnCL3 (EnCL3, E. nipponicum cathepsin L3); test: fluorogenic AMC release; details: 50 uM substrate, 2 mM DTT, citrate/phosphate buffer, pH optimum 6, 28 °C
[5] = target: T3, yrEnCB (EnCB, E. nipponicum cathepsin B) (Eudiplozoon nipponicum, UniProt A0A2P1FSY4); test: fluorogenic AMC release; details: 50 uM substrate, 2 mM DTT, citrate/phosphate buffer, pH optimum 5, 28 °C
T3 construct: Pichia pastoris X-33 (pPICZalpha B), His-tag; self-processed, deglycosylated with endoglycosidase F1, ~29 kDa; full transcript 382 residues
T3 sequence (A0A2P1FSY4 entry or part of it): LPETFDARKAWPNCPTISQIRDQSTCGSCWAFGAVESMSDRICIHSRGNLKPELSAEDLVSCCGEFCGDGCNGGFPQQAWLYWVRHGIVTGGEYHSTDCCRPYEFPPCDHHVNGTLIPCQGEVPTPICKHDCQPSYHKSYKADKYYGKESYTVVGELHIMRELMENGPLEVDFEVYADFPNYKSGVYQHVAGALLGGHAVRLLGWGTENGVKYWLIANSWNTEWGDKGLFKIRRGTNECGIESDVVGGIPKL

T2 sequence (A0A0K1L960 entry or part of it): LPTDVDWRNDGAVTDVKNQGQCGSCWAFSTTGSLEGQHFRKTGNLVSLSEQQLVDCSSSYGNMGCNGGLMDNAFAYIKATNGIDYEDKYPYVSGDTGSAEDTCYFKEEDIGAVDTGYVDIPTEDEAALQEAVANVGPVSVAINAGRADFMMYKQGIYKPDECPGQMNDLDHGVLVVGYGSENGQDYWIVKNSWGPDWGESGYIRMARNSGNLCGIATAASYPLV
T1 sequence (A0A0K1L8K1 entry or part of it): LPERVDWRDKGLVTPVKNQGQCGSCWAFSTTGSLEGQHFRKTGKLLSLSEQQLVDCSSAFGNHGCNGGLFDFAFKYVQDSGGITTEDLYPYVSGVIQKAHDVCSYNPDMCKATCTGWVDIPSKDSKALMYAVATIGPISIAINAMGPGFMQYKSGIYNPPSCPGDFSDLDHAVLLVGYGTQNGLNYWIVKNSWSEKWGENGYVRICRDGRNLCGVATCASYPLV

| Compound | remaining activity at 10 µM [1] [%] | remaining activity at 10 µM [2] [%] | fluorogenic AMC release [3] | fluorogenic AMC release [4] | fluorogenic AMC release [5] |
| --- | --- | --- | --- | --- | --- |
| CCCNC(=O)[C@H]1O[C@@H]1C(=O)N[C@H](C(=O)N1CCC[C@H]1C(=O)O)[C@@H](C)CC [CA-074, N-[L-3-trans-propylcarbamoyloxirane-2-carbonyl]-Ile-Pro-OH] | ~70 | 45 to 65 |  |  |  |
| Cc1cc(=O)oc2cc(NC(=O)[C@H](CCCNC(=N)N)NC(=O)[C@H](CC(C)C)NC(=O)OCc3ccccc3)ccc12 [Z-Leu-Arg-AMC] |  |  | Both EnCLs efficiently hydrolysed the FR substrate, and to a lesser extent the LR | Both EnCLs efficiently hydrolysed the FR substrate, and to a lesser extent the LR |  |
| Cc1cc(=O)oc2cc(NC(=O)[C@H](CCCNC(=N)N)NC(=O)[C@H](Cc3ccccc3)NC(=O)OCc3ccccc3)ccc12 [Z-Phe-Arg-AMC] (Cbz-Phe-Arg-{AMC}) |  |  | Both EnCLs efficiently hydrolysed the FR substrate, and to a lesser extent the LR | Both EnCLs efficiently hydrolysed the FR substrate, and to a lesser extent the LR | The preferred substrate for yrEnCB was the FR, while RR was cleaved less efficiently |
| RKLLW-NH2 [iCL] |  | ~40 |  |  |  |
